Measured values taken from patent publication US20240277810A1, “INTERFERONS AND NUCLEAR EXPORT INHIBITORS FOR USE IN METHODS OF TREATING CANCER” (St. Jude Children's Research Hospital, Inc., priority 2021, published 2024).
Entries after “also recorded” stand apart in the source; their conditions may differ.

Key:
[1] = test system: bone marrow-derived macrophages (BMDMs); experiment: Cell death in BMDMs quantified by propidium iodide staining (real-time imaging); type: cell-based, mouse; conditions: for cell death compared with wild-type cells: Adar1−/− BMDMs; for cell death (PI staining): wild-type BMDMs, 24 hours, 5 μM KPT-330 or 5 ng/ml leptomycin B, with or without 50 ng/mL IFN-β or IFN-γ
Procedure: (§1) Cell Culture. Primary mouse bone marrow-derived macrophages (BMDMs) were generated from the bone marrow of wild-type and the indicated mutant mice. Cells were grown for 5-6 days in Iscove's Modified Dulbecco's Media (IMDM, Thermo Fisher Scientific) supplemented with 1% non-essential amino acids (Thermo Fisher Scientific), 10% fetal bovine serum (FBS, Biowest), 30% L929-conditioned media, and 1% penicillin and streptomycin (Thermo Fisher Scientific). BMDMs were then seeded into antibiotic-free media at a concentration of 1×10^6 cells into 12-well plates and incubated overnight.
(§2) Cell Stimulation. BMDMs were treated with 5 μM of KPT-330 (Selleckchem) or 5 ng/ml of leptomycin B (Sigma) in the presence and absence of 50 ng/mL of IFN-γ (Peprotech) or 50 ng/mL of IFN-β (PBL Assay) for 12 or 24 hours, as indicated.
Real-time Imaging for Cell Death. The kinetics of cell death were determined using the INCUCYTE® S3 (Essen BioScience) live-cell analysis system. BMDMs (5×10^5 cells/well) were seeded in 24-well tissue culture plates. Cells were treated with the indicated stimuli and stained with propidium iodide (PI; Life Technologies) following the manufacturer's protocol. The plate was scanned, and fluorescent and phase-contrast images (4 image fields/well) were acquired in real-time every 1 hour from 0 to 24 hours post-treatment. PI-positive dead cells are marked with a red mask for visualization. The image analysis, masking, and quantification of dead cells were done using the software package supplied with the INCUCYTE® imager.

[2] = test system: endogenous retroelements (EREs); experiment: RT-PCR expression of endogenous retroelements (EREs) in BMDMs; type: cell-based, mouse; conditions: wild-type BMDMs, NEI alone
Procedure: RT-PCR Analysis. Total RNA was extracted using TRIZOL® (Thermo Fisher Scientific) and converted into cDNA by using the High-Capacity cDNA Reverse Transcription Kit (Applied Biosystems). Real-time quantitative PCR was performed on an Applied Biosystems 7500 real-time PCR instrument with 2×SYBR™ Green (Applied Biosystems). For ERE expression analysis, 5 μg of total RNA extracted from the cells was dissolved in 46 μl of water and mixed with 3.5 μl NaCl (5 M stock). Then, 0.5 μl RNase A (10 mg/ml stock, Thermo Fisher Scientific) or water (as mock) was added to a total volume of 50 μl and mixed, followed by incubation at room temperature for 10 minutes. Then 1 ml acid-guanidinium-phenol based reagent sold under the tradename TRIZOL® was directly added to the mixture to terminate digestion, and the RNA was extracted. The RNA transcripts of selected endogenous retroelements (EREs) were measured by RT-PCR with GAPDH as an internal control. The ratios of (ERE/GAPDH)RNAase-A/(ERE/GAPDH)mock were calculated as fold enrichment.

B16-F10 melanoma cells = experiment: B16-F10 melanoma model in mice; type: in vivo, mouse; conditions: wild-type mice; KPT-330 15 mg/kg oral, IFN-γ 10 μg or IFN-α/IFN-β 1 μg i.p., days 8, 10 and 13 after implantation
Procedure: Melanoma Model. The mouse melanoma cell line B16-F10 (ATCCR CRL-6322™) was cultured in a humidified, 5% CO2 incubator at 37° C., and grown in Dulbecco's Modified Eagle Medium (DMEM) with 10% FBS and 100 U/mL penicillin/streptomycin. Male and female 6-12-week-old mice were shaved on their lower back and engrafted with B16-F10 melanoma cells by subcutaneously injecting 1×10^6 cells in 200 μL PBS. Tumors were measured with digital calipers, and tumor volume was calculated using the formula: volume=(length×width^2)×½. For treatment with IFN-γ (Peprotech), each mouse was injected interperitoneally with 10 μg of IFN-γ in 100 μl of saline. For treatment with IFN-α or IFN-β, each mouse was injected interperitoneally with 1 μg of IFN-α or IFN-β. For treatment with KPT-330 (Selleckchem), each mouse was orally administered 300 μl of KPT-330 (15 mg/kg) suspended in 0.6% polyoxyalkylene ether sold under the tradename PLURONIC® (Gibco) and 0.6% polyvinylpyrrolidone. The treatment was given on days 8, 10 and 13 after tumor implantation.

endogenous dsRNA = experiment: dsRNA by J2 antibody dot-blot analysis and immunofluorescence in BMDMs; type: cell-based, mouse; conditions: for amount of dsRNA: Adar1−/− BMDMs; for amount of dsRNA compared with media-treated cells: wild-type BMDMs
Procedure: Dot Blot Analysis. For dsRNA analysis, total RNA was isolated from the cells. Equal volumes (2 μl containing 1 μg of RNA) of the RNA were dotted on HYBONDO N+ membrane (GE Healthcare), dried and auto crosslinked in a UV Stratalinker 2400 (Stratagene) two times. The membrane was then blocked in 5% milk in TBST for 1 hour and probed with J2 antibody (1:1000, Scicons) at 4° C. overnight. On the next day, the membrane was washed with TBST 3 times and probed with secondary goat-anti-mouse HRP antibody in 5% milk at room temperature for 1 hour. The total […] was detected using methylene blue.
Immunofluorescence Staining. BMDMs were washed with phosphate-buffered saline (PBS) and fixed in 4% paraformaldehyde for 15 minutes at room temperature, followed by permeabilization for 10 minutes in 0.5% TRITON® X-100 (2-[4-(2,4,4-trimethylpentan-2-yl)phenoxy]ethanol). Cells were blocked in 5% normal goat serum (Life Technologies) for 1 hour at room temperature. Samples were incubated with anti-ZBP1 antibody (1:250 dilution, Adipogen) or anti-J2 antibody (1:100, Millipore) overnight at 4° C. Cells were then washed three times with PBS and incubated with ALEXA FLUOR® 647 fluorescent dye-conjugated antibody against mouse immunoglobulin G (1:250, Invitrogen) and counterstained with DAPI (4′,6-diamidino-2-phenylindol, Life Technologies) for 1 hour at room temperature. Cells were washed three times with PBS and imaged using a Leica SP8 confocal microscope.

ZBP1 = experiment: Co-immunoprecipitation of ZBP1 with ADAR1 and RIPK3 in BMDMs; type: cell-based, mouse; conditions: wild-type BMDMs, 12 hours
Procedure: Co-Immunoprecipitation Assay. BMDMs (10×10^6 cells) were seeded into 10-cm dishes and treated with IFN-β or KPT-330 or combination of IFN-β and KPT-330 for 12 hours. Then, the cells were lysed in a buffer containing 20 mM Tris-HCl (pH 7.4), 100 mM NaCl, 30 mM KCl, and 0.1% NP-40. After centrifugation at 16,000 g for 10 minutes, the lysates were incubated with anti-ZBP1 antibody (AdipoGen) with protein A/G PLUS-Agarose (Santa Cruz Biotechnology) for overnight incubation at 4° C. After washing with the above buffer, the immunoprecipitated proteins were harvested by boiling in 1×SDS loading buffer at 100° C. for 5 minutes.

BMDMs = experiment: Immunoblot analysis of pyroptosis, apoptosis and necroptosis (PANoptosis) molecules in BMDMs; type: cell-based, mouse; conditions: for cleavage of caspase-1 and activation of GSDME, caspase-8, -3, -7 and MLKL: Adar1−/− BMDMs, NEI alone
Procedure: as §1, §2
Immunoblot Analysis. Cell lysates and culture supernatants were combined in caspase lysis buffer (containing 1× protease inhibitors (Roche), 1× phosphatase inhibitors (Roche), 10% NP-40, and 25 mM DTT) and 4× sample loading buffer (containing SDS and 2-mercaptoethanol) for immunoblot analysis of caspases. For immunoblot analysis of signaling components, supernatants were removed, and cells were washed once with Dulbecco's phosphate-buffered saline (DPBS, Thermo Fisher Scientific), followed by lysis in radioimmunoprecipitation assay (RIPA) buffer and sample loading buffer. Proteins were separated by electrophoresis through 8-12% polyacrylamide gels. Following electrophoretic transfer of proteins onto polyvinylidene fluoride (PVDF) membranes (Millipore), nonspecific binding was blocked by incubation with 5% skim milk, then membranes were incubated with primary antibodies against: caspase-3 (Cell Signaling Technology (CST), 1:1000), cleaved caspase-3 (CST, 1:1000), caspase-7 (CST, 1:1000), cleaved caspase-7 (CST, 1:1000), caspase-8 (AdipoGen, 1:1000), cleaved caspase-8 CST, 1:1000), caspase-11 (Novus Biologicals, 1:1000), caspase-1 (AdipoGen, 1:1000), GAPDH (CST, 1:1000), ZBP1 (AdipoGen, 1:1000), pMLKL (CST, 1:1000), tMLKL (Abgent, 1:1000), ADAR1 (Santa Cruz Biotechnology, 1:500), tRIPK1 (CST, 1:1000), GSDMD (Abcam, 1:1000), GSDME (Abcam, 1:1000), RIPK3 (CST, 1:1000), pSTAT1 (CST, 1:1000), tSTAT (CST, 1:1000), pIRF3 (CST, 1:1000), HA (Millipore, 1:1000), β-actin (Proteintech, 1:1000). Membranes were then washed and incubated with the appropriate horseradish peroxidase (HRP)-conjugated secondary antibodies (Jackson ImmunoResearch Laboratories; anti-rabbit, 1:5000; anti-mouse 1:5000; and anti-rat, 1:5000). Proteins were visualized using Immobilon Forte Western HRP Substrate (Millipore).

O=C(/C=C\n1cnc(-c2cc(C(F)(F)F)cc(C(F)(F)F)c2)n1)NNc1cnccn1 [KPT-330, selinexor]
cell death compared with wild-type cells [1]: increased cell death
cell death (PI staining) [1]: low level of cell death
expression of EREs (Mus-D, Line1, ERV-L) [2]: slightly upregulated
melanoma tumor growth / regression (B16-F10 melanoma cells): reduced melanoma growth
amount of dsRNA (endogenous dsRNA): An increase in the amount of dsRNA
amount of dsRNA compared with media-treated cells (endogenous dsRNA): slightly increased the amounts of dsRNA
interaction of ZBP1 with ADAR1 (ZBP1): some interaction
interaction of ZBP1 with RIPK3 (ZBP1): some interaction
cleavage of caspase-1 and activation of GSDME, caspase-8, -3, -7 and MLKL (BMDMs): increased cleavage of caspase-1 and activation
apoptosis: cleavage of caspase-8, -3 and -7 (BMDMs; wild-type BMDMs): induced apoptosis
cleavage of GSDME (pyroptosis) (BMDMs; wild-type BMDMs): displayed cleavage of GSDME
phosphorylation of MLKL (necroptosis) (BMDMs; wild-type BMDMs): low level of phosphorylation of MLKL

CCC(=C/[C@H](C)C/C=C/C(C)=C/[C@@H](C)C(=O)[C@@H](C)[C@H](O)[C@@H](C)C/C(C)=C/C(=O)O)/C=C/[C@@H]1OC(=O)C=C[C@@H]1C [LMB, Leptomycin B]
cell death compared with wild-type cells [1]: increased cell death
cell death (PI staining) [1]: low level of cell death
expression of EREs (Mus-D, Line1, ERV-L) [2]: slightly upregulated
amount of dsRNA (endogenous dsRNA): An increase in the amount of dsRNA
amount of dsRNA compared with media-treated cells (endogenous dsRNA): slightly increased the amounts of dsRNA
cleavage of caspase-1 and activation of GSDME, caspase-8, -3, -7 and MLKL (BMDMs): increased cleavage of caspase-1 and activation
apoptosis: cleavage of caspase-8, -3 and -7 (BMDMs; wild-type BMDMs): induced apoptosis
cleavage of GSDME (pyroptosis) (BMDMs; wild-type BMDMs): displayed cleavage of GSDME
phosphorylation of MLKL (necroptosis) (BMDMs; wild-type BMDMs): low level of phosphorylation of MLKL

B1: IFN-β: type I interferon (PBL Assay), 50 ng/mL in cells, 1 μg per mouse (protein, listed as Homo sapiens)
chain: MTNKCLLQIALLLCFSTTALSMSYNLLGFLQRSSNFQCQKLLWQLNGRLEYCLKDRMNFDIPEEIKQLQQFQKEDAALTIYEMLQNIFAIFRQDSSSTGWNETIVENLLANVYHQINHLKTVLEEKLEKEDFTRGKLMSSLHLKRYYGRILHYLKAKEYSHCAWTIVRVEILRNFYFINRLTGYLRN
interaction of ZBP1 with ADAR1 (ZBP1): robust interaction
expression of ZBP1 / ADAR1 (BMDMs; wild-type BMDMs): induced ZBP1 expression; also recorded: upregulated
